Experimental findings from US10105367B2, “Therapeutic thiophene-, furan-, and pyridine-fused azolopyrimidin-5-(6h)-ones” (Dart Neuroscience (Cayman) Ltd., priority 2012, dated 2018) are described below.

For orientation: IC50 means the concentration needed to halve the response being measured. Read a high IC50 as weaker potency in that assay.

Molecules are shown by their SMILES. Values joined by “and” are separate entries in the source; they are usually repeats but may differ in a detail not shown here. Equal entries are not always repeated.

For one assay, the target named is human PDE1B (Homo sapiens (Human), UniProt Q01064). Description: PDE1B inhibitory assay (IMAP TR-FRET). Conditions: PDE1B pIC50, negative log of half-maximal molar inhibitory concentration; 200 nM FAM-cAMP, Calmodulin, CaCl2. In general terms: TR-FRET usually uses a lanthanide donor and a delayed reading to cut background.
Experimental: PDE1B inhibition was determined by an IMAP TR-FRET assay.
After a brief centrifugation, the plates were incubated for 30 minutes at room temperature. The assay was terminated by adding 5 μL IMAP binding reagent/Tb complex (Molecular Devices, Sunnyvale, Calif.) to each well.
Plates were incubated 1 hour at room temperature and read on a Viewlux multimode plate reader (Perkin Elmer). The instrument was set to excite using the DUG11 filter and measure using 490/10 nm and 520/10 nm filters. Ratios of acceptor and donor were then calculated.
For IC50 calculations, the values of % efficacy versus a series of compound concentrations were then plotted using non-linear regression analysis of sigmoidal dose-response curves generated with the equation Y=B+(T−B)/1+10((Log EC50−X)×Hill Slope), where Y=percent activity, B=minimum percent efficacy, T=maximum percent efficacy, X=logarithm of compound and Hill Slope=slope factor or Hill coefficient. The IC50 value was determined by the concentration causing a half-maximal percent efficacy.
Regarding `COc1ccc(Cn2c(=O)n3ncnc3c3cc(C(C)=O)cnc32)cc1` [Example 265, 9-Acetyl-6-(4-methoxybenzyl)pyrido[3,2-e][1,2,4]triazolo[1,5-c]pyrimidin-5(6H)-one], the IC50 fell in the range of 0.1 to 1 µM. The same measure, in the same setting: the same measure for `COc1ccc(Cn2c(=O)n3ncnc3c3cc(C(O)CN4CCOCC4)cnc32)cc1` (stereo not drawn) [Example 267, 9-(1-Hydroxy-2-morpholinoethyl)-6-(4-methoxybenzyl)pyrido[3,2-e][1,2,4]triazolo[1,5-c]pyrimidin-5(6H)-one]: 0.1 to 1 µM.

As to `COc1ccc(Cn2c(=O)n3ncnc3c3cc(C(F)CN4CCOCC4)cnc32)cc1` (stereo not drawn) [Example 269, 9-(1-Fluoro-2-morpholinoethyl)-6-(4-methoxybenzyl)pyrido[3,2-e][1,2,4]triazolo[1,5-c]pyrimidin-5(6H)-one], the IC50 was in the range of 0.1 to 1 µM. The compound `COc1ccc(Cn2c(=O)n3ncnc3c3cc(C(O)C(F)(F)F)cnc32)cc1` (stereo not drawn) [Example 271, 6-(4-Methoxybenzyl)-9-(2,2,2-trifluoro-1-hydroxyethyl)pyrido[3,2-e][1,2,4]triazolo[1,5-c]pyrimidin-5(6H)-one] gave an IC50 of 0.1 to 1 µM.

With `C[C@@H]1CN(Cc2cnc3c(c2)c2ncnn2c(=O)n3Cc2ccc(OC(F)(F)F)cc2)C[C@H](C)O1` [Example 273, 9-(((2S,6R)-2,6-Dimethylmorpholino)methyl)-6-(4-(trifluoromethoxy)benzyl)pyrido[3,2-e][1,2,4]triazolo[1,5-c]pyrimidin-5(6H)-one], the IC50 is 0.1 to 1 µM and 1 to 10 µM.

In turn, `Cc1cc(Cn2c(=O)n3ncnc3c3cc(CN4C[C@@H](C)O[C@@H](C)C4)cnc32)ccc1F` [Example 274] had an IC50 of 0.1 to 1 µM. `C[C@@H]1CN(Cc2cnc3c(c2)c2ncnn2c(=O)n3Cc2ccc(F)cc2)C[C@H](C)O1` [Example 275] gave an IC50 of 0.1 to 1 µM.

The compound `COc1ccc(Cn2c(=O)n3ncnc3c3cc(CN4C[C@@H](C)O[C@@H](C)C4)cnc32)cc1F` [Example 276] came in with an IC50 of 0.1 to 1 µM. Consider `C[C@@H]1CN(Cc2cnc3c(c2)c2ncnn2c(=O)n3Cc2ccc(F)c(Br)c2)C[C@H](C)O1` [Example 278], for which the concentration for half-maximal inhibition (IC50) lay in the range of 0.1 to 1 µM. As for `Cc1ccccc1Cn1c(=O)n2ncnc2c2cc(CN3C[C@@H](C)O[C@@H](C)C3)cnc21` [Example 283], the IC50 lay within 1 to 10 µM. Still for that read-out and setting: the same measure for `C[C@@H]1CN(Cc2cnc3c(c2)c2ncnn2c(=O)n3Cc2cccc(I)c2)C[C@H](C)O1` [Example 284]: 0.1 to 1 µM; for `C[C@@H]1CN(Cc2cnc3c(c2)c2ncnn2c(=O)n3Cc2cc(F)cc(F)c2)C[C@H](C)O1` [Example 285]: 1 to 10 µM; for `COc1ccc(Cn2c(=O)n3ncnc3c3cc(CN4C[C@@H](C)O[C@@H](C)C4)cnc32)c(Br)c1` [Example 286]: 1 to 10 µM. For the compound `C[C@@H]1CN(Cc2cnc3c(c2)c2ncnn2c(=O)n3Cc2ccc(OC(F)F)cc2F)C[C@H](C)O1` [Example 290], the IC50 fell in the range of 0.1 to 1 µM. `COc1c(F)cc(Cn2c(=O)n3ncnc3c3cc(CN4C[C@@H](C)O[C@@H](C)C4)cnc32)cc1F` [Example 291] returned an IC50 of 0.1 to 1 µM. The compound `COc1ccc(Cn2c(=O)n3ncnc3c3cc(CN4C[C@@H](C)O[C@@H](C)C4)cnc32)c(F)c1F` [Example 292] gave an IC50 of 0.1 to 1 µM. On the same count and under the same terms, under `C[C@@H]1CN(Cc2cnc3c(c2)c2ncnn2c(=O)n3Cc2ccc(F)c(Cl)c2)C[C@H](C)O1` [Example 294] stands 0.1 to 1 µM. Take `C[C@@H]1CN(Cc2cnc3c(c2)c2ncnn2c(=O)n3Cc2ccc(Cl)c(Cl)c2)C[C@H](C)O1` [Example 295]: the IC50 is 0.1 to 1 µM. `COc1ccc(Cn2c(=O)n3ncnc3c3cc(CN4C[C@@H](C)O[C@@H](C)C4)cnc32)c(Cl)c1` [Example 296] yielded an IC50 of 0.1 to 1 µM.

`C[C@@H]1CN(Cc2cnc3c(c2)c2ncnn2c(=O)n3Cc2ccc(Cl)c(F)c2)C[C@H](C)O1` [Example 298] showed an IC50 of 0.1 to 1 µM. Turning to `C[C@@H]1CN(Cc2cnc3c(c2)c2ncnn2c(=O)n3Cc2cc(F)cc(Cl)c2)C[C@H](C)O1` [Example 299], the IC50 fell in the range of 1 to 10 µM. For the compound `CCOc1ccc(Cn2c(=O)n3ncnc3c3cc(CN4C[C@@H](C)O[C@@H](C)C4)cnc32)cc1` [Example 301], the IC50 lay within 0.1 to 1 µM. Still for that read-out and setting: under `C[C@@H]1CN(Cc2cnc3c(c2)c2ncnn2c(=O)n3Cc2ccc(F)c(F)c2)C[C@H](C)O1` [Example 302] stands 0.1 to 1 µM; under `CSc1ccc(Cn2c(=O)n3ncnc3c3cc(CN4C[C@@H](C)O[C@@H](C)C4)cnc32)cc1` [Example 303], 0.1 to 1 µM.

Still in this assay, the particulars now being: negative log of half-maximal molar inhibitory concentration; 200 nM FAM-cAMP, Calmodulin, CaCl2.
On to `COc1ccc(Cn2c(=O)n3ncnc3c3cc(C(C)N4C[C@@H](C)O[C@@H](C)C4)cnc32)cc1` (stereo partly drawn) [Example 266, 9-(1-((2S,6R)-2,6-Dimethylmorpholino)ethyl)-6-(4-methoxybenzyl)pyrido[3,2-e][1,2,4]triazolo[1,5-c]pyrimidin-5(6H)-one], for which the “PDE1B pIC50” value was over 7. Turning to `COc1ccc(Cn2c(=O)n3ncnc3c3cc(C(O)CN4C[C@@H](C)O[C@@H](C)C4)cnc32)cc1` (stereo partly drawn) [Example 268], the “PDE1B pIC50” value is over 7. Consider `COc1ccc(Cn2c(=O)n3ncnc3c3cc(C(F)CN4C[C@@H](C)O[C@@H](C)C4)cnc32)cc1` (stereo partly drawn) [Example 270], for which the “PDE1B pIC50” value was over 7. Same read-out and setting: under `COc1ccc(Cn2c(=O)n3ncnc3c3cc(C(N4CCOCC4)C(F)(F)F)cnc32)cc1` (stereo not drawn) [Example 272, 6-(4-Methoxybenzyl)-9-(2,2,2-trifluoro-1-morpholinoethyl)pyrido[3,2-e][1,2,4]triazolo[1,5-c]pyrimidin-5(6H)-one] stands over 7. As to `COc1ccc(Cn2c(=O)n3ncnc3c3cc(CN4C[C@@H](C)O[C@@H](C)C4)cnc32)c(F)c1` [Example 277], the “PDE1B pIC50” value is given as over 7. Still for that read-out and setting: under `C[C@@H]1CN(Cc2cnc3c(c2)c2ncnn2c(=O)n3Cc2ccc(C#N)cc2)C[C@H](C)O1` [Example 279] stands under 5; under `C[C@@H]1CN(Cc2cnc3c(c2)c2ncnn2c(=O)n3Cc2ccc(C(C)(C)C)cc2)C[C@H](C)O1` [Example 280], under 5; under `C[C@@H]1CN(Cc2cnc3c(c2)c2ncnn2c(=O)n3Cc2cccc(C#N)c2)C[C@H](C)O1` [Example 281], under 5.

Take `C[C@@H]1CN(Cc2cnc3c(c2)c2ncnn2c(=O)n3Cc2ccc(S(C)(=O)=O)cc2)C[C@H](C)O1` [Example 282]: the “PDE1B pIC50” value was under 5. On the same count and under the same terms, under `COc1cc(F)c(Cn2c(=O)n3ncnc3c3cc(CN4C[C@@H](C)O[C@@H](C)C4)cnc32)c(F)c1` [Example 287] stands over 7; under `C[C@@H]1CN(Cc2cnc3c(c2)c2ncnn2c(=O)n3Cc2ccc3cnn(C)c3c2)C[C@H](C)O1` [Example 288], under 5; under `C[C@@H]1CN(Cc2cnc3c(c2)c2ncnn2c(=O)n3Cc2ccc(-n3cccn3)cc2)C[C@H](C)O1` [Example 289], under 5.

`C[C@@H]1CN(Cc2cnc3c(c2)c2ncnn2c(=O)n3Cc2ccccc2SC(F)(F)F)C[C@H](C)O1` [Example 293]: the “PDE1B pIC50” value is on record as under 5. On the same count and under the same terms, the same measure for `C[C@@H]1CN(Cc2cnc3c(c2)c2ncnn2c(=O)n3Cc2ccccc2OC(F)F)C[C@H](C)O1` [Example 297]: under 5; for `C[C@@H]1CN(Cc2cnc3c(c2)c2ncnn2c(=O)n3Cc2ccc(N3CCCC3=O)cc2)C[C@H](C)O1` [Example 300]: under 5.
